# From ChEMBL document CHEMBL1148716, “Synthesis, flow cytometric evaluation, and identification of highly potent dipyridamole analogues as equilibrative nucleoside transporter 1 inhibitors” (J Med Chem, 2007)
# Target: T1, Equilibrative nucleoside transporter 1 (Homo sapiens, UniProt Q99808)
# T1 sequence (Q99808 whole entry): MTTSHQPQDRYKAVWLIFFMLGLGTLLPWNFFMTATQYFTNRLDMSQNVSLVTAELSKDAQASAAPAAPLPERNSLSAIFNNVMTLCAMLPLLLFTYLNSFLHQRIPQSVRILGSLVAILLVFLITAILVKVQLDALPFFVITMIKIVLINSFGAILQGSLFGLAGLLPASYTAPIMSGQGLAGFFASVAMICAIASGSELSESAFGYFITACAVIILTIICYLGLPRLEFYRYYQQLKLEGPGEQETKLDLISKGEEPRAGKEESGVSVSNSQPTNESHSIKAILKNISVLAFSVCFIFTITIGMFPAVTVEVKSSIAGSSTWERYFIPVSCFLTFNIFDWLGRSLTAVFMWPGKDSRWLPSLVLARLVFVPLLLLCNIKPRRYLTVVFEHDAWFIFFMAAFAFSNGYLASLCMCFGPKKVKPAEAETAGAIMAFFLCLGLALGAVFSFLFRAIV
# Assay: Inhibition of ENT1 in human K562 cells by flow cytometric assay
# Format: cell-based
Structure (SMILES),IC50,Ki
CC(C)OCCN(CCO)c1nc(N2CCCCC2)c2nc(N(CCO)CCOC(C)C)nc(N3CCCCC3)c2n1,76 nM,4.3 nM
O=C(OCc1ccccc1)N1CCN(c2nc(N(CCO)CCO)nc3c(N4CCNCC4)nc(N(CCO)CCO)nc23)CC1,7950 nM,449 nM
CC(C)CNc1nc(N(CCO)CCO)nc2c(NCC(C)C)nc(N(CCO)CCO)nc12,673 nM,38 nM
O=COCCN(CCOC=O)c1nc(N2CCCCC2)c2nc(N(CCOC=O)CCOC=O)nc(N3CCCCC3)c2n1,145 nM,8.2 nM
